Results as given in patent US4440771A, “2-Acetyl quinoline thiosemicarbazones useful in treatment of gonorrhea, malaria or bacterial infections” (The United States of America as represented by the …, priority 1982, dated 1984).
≈ marks a conversion by molar mass, not a printed value. Like-named read-outs stand apart in the source and are kept apart here.

Legend:
[1] = test system: Neisseria meningitidis isolates; assay: Minimum inhibitory concentration, macro broth dilution, Neisseria meningitidis isolates (Test 2); type: cell-based; settings: 24 h
Method: Compounds were tested against five isolates of Neisseria meningitidis. […] The test procedure used was the macro broth dilutuon method in duplicate outlined by J. C. Sherris on pages 414-415. The test compounds and controls were prepared as in Test 1. Ampicillin and penicillin standards were initially diluted as described by J. C. Sherris on pages 411-412 followed by dilution with Mueller-Hinton broth.

[2] = test system: Neisseria gonorrhoeae isolates; assay: Minimum inhibitory concentration, agar dilution, Neisseria gonorrhoeae isolates (Test 3); settings: 24 h, read-out: Minimum Inhibitory Concentration
Method: Compounds were tested against 35 Neisseria gonorrhoeae isolates. The bacteria used were provided by the Department of Bacterial Diseases of the Walter Reed Amry Institute of Research. The test procedure used was the agar dilution method in duplicate as outlined by J. S. Sherris on pages 411-412. GC Medium (Difco) with a 2% defined supplement added as described by D. S. Kellogg et al [J. Bact. […] The compounds were dissolved in DMSO (1.0 mg/ml), diluted with GC broth (GC Medium without agar) to the appropriate concentration, and added to the GC Medium at 55°-56° C. The latter was then poured and allowed to solidify. A penicillin standard was also prepared with initial dilutions as described by J. C. Sherris followed by dilutions with GC broth and addition to the GC Medium at 55°-56° C. The inoculum was 1:200 CG broth dilution of a suspension of colony isolates after the suspension was adjusted visually to the turbidity standard described by J. M. Matsen and A. L. Barr on page 422 in "Manual of Clinical Microbiology," 2nd Ed., E. Lennette, E. H. Spaulding, and J. P. Truant, Ed. […] The plates were inoculated with a replicator and incubated at 37° C. under 5-10% carbon dioxide.

[3] = test system: Mycobacterium smegmatis strains; assay: Minimum inhibitory concentration, Mycobacterium smegmatis strains (Test 4); type: cell-based; settings: Mycolicibacterium smegmatis
Method: Compounds were tested against three strains of Mycobacterium smegmatis. The test procedure used was as mentioned by N. E. Morrison [Int. J. of Leprosy 39:34-43 (1971)]. The strain numbers refer to Mycobacterium smegmatis ATCC 607 (I), a DDS-resistant daughter strain (II), and a Rifampin-resistant daughter strain (III), respectively.

[4] = test system: Staphylococcus aureus isolates; assay: Minimum inhibitory concentration, macro broth dilution, Staphylococcus aureus isolates (Test 1); type: cell-based; settings: for MIC: Staphylococcus aureus, 24 h, read-out: Minimum Inhibitory Concentration
Method: Compounds were tested against five isolates of Staphylococcus aureus. The bacteria used were isolated from patients at the Walter Reed Army Medical Center, Washington, D.C. […] Each compound was dissolved in Dimethyl Sulfoxide (DMSO) (12.8 mg/ml) and then diluted with Mueller-Hinton broth to obtain the desired dilutions. Tubes containing the hightest quantities of DMSO with no compound present were run as controls.

[5] = test system: Plasmodium berghei KBG 173; assay: In vivo antimalarial activity against Plasmodium berghei in mice (Test 5); set-up: key: C: Mice surviving 60 days are considered cured; active: Activity is defined as a 100% increase in the mean survival time of the treated mice compared to the control group; settings: C (n/5) = cured of five
Method: Compounds were tested against Plasmodium berghei KBG 173 malaria in mice following the procedure described by T. S. Osdene, P. B. Russell, and L. Rane [J. Med. Chem. 10:431-434 (1967)]. Five mice were tested at each dosage level. Mice surviving 60 days are considered cured. Toxicity is defined as a decrease in the mean survival time of the treated mice as compared to the control group. Activity is defined as a 100% increase in the mean survival time of the treated mice compared to the control group.

[6] = Neisseria meningitidis isolate 7957, read-out: Minimum Inhibitory Concentration
[7] = Neisseria meningitidis isolate 7990, read-out: Minimum Inhibitory Concentration
[8] = Neisseria meningitidis isolate 8005, read-out: Minimum Inhibitory Concentration
[9] = Neisseria meningitidis isolate 8006, read-out: Minimum Inhibitory Concentration
[10] = Neisseria meningitidis isolate 8011, read-out: Minimum Inhibitory Concentration
[11] = 24 h, DDS-resistant daughter strain (II)
[12] = 24 h, Rifampin-resistant daughter strain (III)
[13] = ATCC607, 24 h, Mycobacterium smegmatis ATCC 607 (I)
[14] = Staphylococcus aureus isolate V, 24 hours
[15] = Staphylococcus aureus isolate II, 24 hours
[16] = Staphylococcus aureus isolate III, 24 hours
[17] = Staphylococcus aureus isolate IV, 24 hours
[18] = read-out: Minimum Inhibitory Concentration, Neisseria meningitidis isolate 7957
[19] = read-out: Minimum Inhibitory Concentration, Neisseria meningitidis isolate 7990
[20] = read-out: Minimum Inhibitory Concentration, Neisseria meningitidis isolate 8006
[21] = read-out: Minimum Inhibitory Concentration, Neisseria meningitidis isolate 8011

With CC1(C)S[C@@H]2[C@H](NC(=O)[C@H](N)c3ccccc3)C(=O)N2[C@H]1C(=O)O [Ampicillin, reference compound] the MIC [1, 6] was 0.008 µg/mL (≈ 0.0229 µM), the MIC [1, 7] was 0.008 µg/mL (≈ 0.0229 µM) and the MIC [1, 8] was 0.008 µg/mL (≈ 0.0229 µM). It also gave an MIC [1, 9] of 0.016 µg/mL (≈ 0.0458 µM) and an MIC [1, 10] of 0.016 µg/mL (≈ 0.0458 µM).

With CC(=NNC(=S)N1CCCCCC1)c1ccc2ccccc2n1 [Compound 3F, 1-Azacycloheptane-1-thiocarboxylic Acid 2-[1-(2-quinolyl)ethylidene]-hydrazide] the MIC [2] was 0.25 to 0.5 µg/mL (≈ 0.766 to 1.53 µM), the MIC [3, 11] was 15 µg/mL (≈ 45.9 µM) and the MIC [3, 12] was 10 µg/mL (≈ 30.6 µM). The MIC [3, 13] was 2.5 µg/mL (≈ 7.66 µM), the “Minimum Inhibitory Concentration” value [4, 14] was 16 µg/mL and the MIC [4, 15] was 16 µg/mL (≈ 49 µM). For the same compound, the MIC [4, 16] was 16 µg/mL (≈ 49 µM), the MIC [4, 17] was 16 µg/mL (≈ 49 µM) and the MIC [1, 6] was less than 0.062 µg/mL. The MIC [1, 7] was 0.125 µg/mL (≈ 0.383 µM), the MIC [1, 8] was 0.25 µg/mL (≈ 0.766 µM) and the MIC [1, 9] was 0.25 µg/mL (≈ 0.766 µM). For the same compound, the MIC [1, 10] was 0.25 µg/mL (≈ 0.766 µM).

CC(=NNC(=S)N1CC2CCC(CC2)C1)c1ccc2ccccc2n1 [Compound 3G, 3-Azabicyclo[3.2.2]none-3-thiocarboxylic acid 2-[1-(2-quinolyl)ethylidene]hydrazide] was tested, and the “In vivo Antimalarial Activity” value ([5]; 160 mg/kg) was “active”, the MIC [2] was 0.5 to 1 µg/mL (≈ 1.42 to 2.84 µM) and the MIC [3, 11] was 15 µg/mL (≈ 42.6 µM). The MIC [3, 12] was 10 µg/mL (≈ 28.4 µM), the MIC [3, 13] was 4 µg/mL (≈ 11.3 µM) and the “Minimum Inhibitory Concentration” value [4, 15] was 16 µg/mL. The “Minimum Inhibitory Concentration” value [4, 16] was 16 µg/mL, the “Minimum Inhibitory Concentration” value [4, 17] was 16 µg/mL and the “Minimum Inhibitory Concentration” value [4, 14] was 16 µg/mL. For the same compound, the MIC [4] was 16 µg/mL (≈ 45.4 µM), the MIC [1, 18] was 0.125 µg/mL (≈ 0.355 µM) and the MIC [1, 19] was 1 µg/mL (≈ 2.84 µM). It also gave an MIC ([1]; read-out: Minimum Inhibitory Concentration, Neisseria meningitidis isolate 8005) of 1 µg/mL (≈ 2.84 µM), an MIC [1, 20] of 0.5 µg/mL (≈ 1.42 µM) and an MIC [1, 21] of 0.5 µg/mL (≈ 1.42 µM).

With CC(=NNC(=S)N1CCN(c2ccccn2)CC1)c1ccc2ccccc2n1 [Compound 3H] the MIC [2] was 0.125 to 0.5 µg/mL (≈ 0.32 to 1.28 µM), the MIC [3, 11] was 10 µg/mL (≈ 25.6 µM) and the MIC [3, 12] was 5 µg/mL (≈ 12.8 µM). For the same compound, the MIC [3, 13] was 2.5 µg/mL (≈ 6.4 µM), the “Minimum Inhibitory Concentration” value [4, 14] was 16 µg/mL and the MIC [4, 15] was 16 µg/mL (≈ 41 µM). It also gave an MIC [4, 16] of 16 µg/mL (≈ 41 µM), an MIC [4, 17] of 16 µg/mL (≈ 41 µM) and an MIC [1, 6] greater than 1 µg/mL. The MIC [1, 7] was greater than 1 µg/mL, the MIC [1, 8] was greater than 1 µg/mL and the MIC [1, 9] was greater than 1 µg/mL. For the same compound, the MIC [1, 10] was greater than 1 µg/mL.

Work on CC(=NNC(=S)N1CCCC1)c1ccc2ccccc2n1 [Compound 3I, Pyrrolidine-1-thiocarboxylic acid 2-[1-(2-quinolyl)ethylidene]hydrazide] yielded an MIC [2] of 0.125 to 0.25 µg/mL (≈ 0.419 to 0.838 µM), an MIC [3, 11] of 3 µg/mL (≈ 10.1 µM) and an MIC [3, 12] of 1.5 µg/mL (≈ 5.03 µM). The MIC [3, 13] was 0.6 µg/mL (≈ 2.01 µM), the MIC ([4]; Staphylococcus aureus isolate I, 24 hours) was no more than 0.25 µg/mL and the MIC [4, 17] was no more than 0.25 µg/mL. The MIC [4, 14] was no more than 0.25 µg/mL, the MIC [1, 6] was 0.062 µg/mL (≈ 0.208 µM) and the MIC [1, 7] was 0.125 µg/mL (≈ 0.419 µM). For the same compound, the MIC [1, 8] was 0.125 µg/mL (≈ 0.419 µM), the MIC [1, 9] was 0.125 µg/mL (≈ 0.419 µM) and the MIC [1, 10] was 0.125 µg/mL (≈ 0.419 µM).

CCCNC(=S)NN=C(C)c1ccc2ccccc2n1 [Compound 3J, I-Propylaminothiocarboxylic acid 2-[1-(2-quinolyl)ethylidene]hydrazide] was tested, and the MIC [3, 11] was 4 µg/mL (≈ 14 µM), the MIC [3, 12] was 2 µg/mL (≈ 6.98 µM) and the MIC [3, 13] was 1 µg/mL (≈ 3.49 µM).

For CC(=NNC(=S)N(CC(C)C)CC(C)C)c1ccc2ccccc2n1 [Compound 3K, Diisobutylaminothiocarboxylic acid 2-[1-(2-quinolyl)ethylidene]hydrazide], the “In vivo Antimalarial Activity” value ([5]; 320 mg/kg) was “active”, the “In vivo Antimalarial Activity” value ([5]; 640 mg/kg) was “active” and the MIC [2] was greater than 1 µg/mL. It also gave an MIC [3, 11] greater than 50 µg/mL, an MIC [3, 12] greater than 50 µg/mL and an MIC [3, 13] of 10 µg/mL (≈ 28 µM). For the same compound, the “Minimum Inhibitory Concentration” value [4, 14] was 16 µg/mL, the MIC [4, 15] was 16 µg/mL (≈ 44.9 µM) and the MIC [4, 16] was 16 µg/mL (≈ 44.9 µM). It also gave an MIC [4, 17] of 16 µg/mL (≈ 44.9 µM), an MIC [1, 6] of 0.125 µg/mL (≈ 0.351 µM) and an MIC [1, 7] of 0.5 µg/mL (≈ 1.4 µM). The MIC [1, 8] was 0.5 µg/mL (≈ 1.4 µM), the MIC [1, 9] was 1 µg/mL (≈ 2.8 µM) and the MIC [1, 10] was 0.5 µg/mL (≈ 1.4 µM).

Nc1ccc(S(=O)(=O)c2ccc(N)cc2)cc1 [DDS, reference compound] showed an MIC [3, 11] of 400 µg/mL (≈ 1610 µM) and an MIC [3, 13] of 2 µg/mL (≈ 8.05 µM).

With CC1(C)S[C@@H]2[C@H](NC(=O)Cc3ccccc3)C(=O)N2[C@H]1C(=O)O [Penicillin, reference compound] the MIC [2] was 0.062 to 16 µg/mL (≈ 0.185 to 47.8 µM), the MIC [1, 18] was 0.031 µg/mL (≈ 0.0927 µM) and the MIC [1, 19] was 0.031 µg/mL (≈ 0.0927 µM). For the same compound, the MIC [1, 20] was 0.031 µg/mL (≈ 0.0927 µM) and the MIC [1, 21] was 0.031 µg/mL (≈ 0.0927 µM).

Compound CO[C@H]1/C=C/O[C@@]2(C)Oc3c(C)c(O)c4c(O)c(c(/C=N/N5CCN(C)CC5)c(O)c4c3C2=O)NC(=O)/C(C)=C\C=C\[C@H](C)[C@H](O)[C@@H](C)[C@@H](O)[C@@H](C)[C@H](OC(C)=O)[C@@H]1C [Rifampin, reference compound] has an MIC [3, 12] of 250 µg/mL (≈ 304 µM) and an MIC [3, 13] of 1 µg/mL (≈ 1.22 µM).
